The subject of experiment [1] is Bcl-xL. Description: In cellulo BRET between Luciferase-fused TCTP and YFP-fused Bcl-xL. In kind it is cell-based. The following applies: MCF-7 cells; donor Luciferase-fused TCTP, acceptor YFP-fused Bcl-xL. An excerpt: See Supplementary Information for full details.
Twenty-four hours later, cells
Protein expression and purification

In experiment [2] the test system is Bcl-xL inhibition of cBid/Bax. Kind of experiment: In vitro reconstitution liposome permeabilization, cBid/Bax with Bcl-xL. The experiment is classed as biochemical. The following applies: ANTS/DPX liposomes, 100 nM Bax, 20 nM cBid, pre-incubation pH 9, 45 min, 37 °C, 5 h, pH 7. An excerpt:
This purified assay system measures direct interactions in which full-length untagged Bcl-xL inhibits permeabilization by binding full-length caspase 8 cleaved Bid (cBid) and/or full-length untagged Bax, thereby preventing Bax oligomerization in membranes. […] In these assays liposome permeabilization by activated Bax releases the entrapped fluorophore/quencher pair 8-aminonaphthalene-1,3,6-trisulfonic acid (ANTS)/p-xylene-bispyridinium (DPX), resulting in a measurable increase of fluorescence.
(A–E) in vitro reconstitution assay on liposome permeabilization. […] The treated Bcl-xL was then added to reactions containing ANTS-DPX liposomes, 100 nM Bax and 20 nM of either cBid (A,B) or cBidmt1(C,D) at pH 7. Liposome permeabilization was quantified by fluorescence after 5h incubation at 37 °C where 100% release was defined as the fluorescence change due to lipid solubilization with 1% Triton X-100. […] Error bars, std. dev. n = 3. […] Cyto c extra-mito: in the supernatant, analysed by Western blot. […]
Figure 10 A,B) or cBid mt1 (Supplementary Figure 10 C,D) at pH 7 to quantify the activity of Bcl-xL inhibition of liposome permeablization. […]
then added to reactions containing ANTS-DPX liposomes, 100nM Bax and 20nM of either c Bid (A, C) or cBid mt1(B, D) at pH 7 and liposome permeabilization was quantified by fluorescence […]

With “TCTP: Translationally Controlled Tumor Protein (TCTP/tpt1), recombinant full-length”, the “BRET signals with Bcl-xL” value in experiment [1] is “saturable BRET signals”. Besides, the “effect on Bcl-xL inhibition of cBid/Bax-mediated liposome permeabilization” value in experiment [2] is on record as “enhanced Bcl-xL inhibition”.

These data come from publication PMC4728560 (Scientific Reports, 2016).
